Measurements: ChEMBL document CHEMBL4340520, “Hederagenin amide derivatives as potential antiproliferative agents” (Eur J Med Chem, 2019)
The source made the active and inactive calls. The rule behind the calls is not given here.

Tests used:
FaDu = assay: Cytotoxicity against human FADU cells assessed as reduction in cell viability after 96 hrs by SRB assay; assay type: functional, cell-based
A2780 [1] = assay: Cytotoxicity against human A2780 cells assessed as reduction in cell viability after 96 hrs by SRB assay; assay type: functional, cell-based; conditions: A2780, 96 h
HT-29 [2] = assay: Cytotoxicity against human HT-29 cells assessed as reduction in cell viability after 96 hrs by SRB assay; assay type: functional, cell-based; conditions: HT-29, 96 h
MCF7 = assay: Cytotoxicity against human MCF7 cells assessed as reduction in cell viability after 96 hrs by SRB assay; assay type: functional, cell-based; conditions: MCF7, 96 h
SW-1736 = assay: Cytotoxicity against human SW1736 cells assessed as reduction in cell viability after 96 hrs by SRB assay; assay type: functional, cell-based; conditions: SW-1736, 96 h
NIH3T3 = assay: Cytotoxicity against mouse NIH/3T3 cells assessed as reduction in cell viability after 96 hrs by SRB assay; assay type: cell-based; conditions: NIH3T3, 96 h
A2780 [3] = assay: Potency index, ratio of hederagenin EC50 to test compound EC50 for cytotoxicity against human A2780 cells; assay type: functional
A2780 [4] = assay: Potency index, ratio of acetylated hederagenin EC50 to test compound EC50 for cytotoxicity against human A2780 cells; assay type: functional
A2780 [5] = assay: Potency index, ratio of betulinic acid EC50 to test compound EC50 for cytotoxicity against human A2780 cells; assay type: functional
HT-29 [6] = assay: Potency index, ratio of hederagenin EC50 to test compound EC50 for cytotoxicity against human HT-29 cells; assay type: functional
HT-29 [7] = assay: Potency index, ratio of betulinic acid EC50 to test compound EC50 for cytotoxicity against human HT-29 cells; assay type: functional
HT-29 [8] = assay: Cytotoxicity against human HT-29 cells assessed as cell membrane permeability at 2.5 to 5 uM after 24 hrs by acridine orange/propidium iodide staining based fluorescence microscopic method; assay type: functional
A2780 [9] = assay: Cytotoxicity against human A2780 cells assessed as cell membrane permeability at 6 uM after 24 hrs by acridine orange/propidium iodide staining based fluorescence microscopic method; assay type: functional
A2780 [10] = assay: Induction of apoptosis in human A2780 cells assessed as increase in secondary necrotic cells at 6 uM after 24 hrs by Annexin V-FITC/propidium iodide staining-based flow cytometric analysis; assay type: functional, cell-based

| SMILES | EC50 (FaDu) | EC50 (A2780 [1]) | EC50 (HT-29 [2]) | EC50 (MCF7) | EC50 (SW-1736) | EC50 (NIH3T3) | Ratio EC50 (A2780 [3]) | Ratio EC50 (A2780 [4]) | Ratio EC50 (A2780 [5]) | Ratio EC50 (HT-29 [6]) | Ratio EC50 (HT-29 [7]) | Activity (HT-29 [8]) | Activity (A2780 [9]) | Activity (A2780 [10]) |
| --- | --- | --- | --- | --- | --- | --- | --- | --- | --- | --- | --- | --- | --- | --- |
| CC(=O)OC[C@@]1(C)[C@@H]2CC[C@]3(C)[C@H](CC=C4[C@@H]5CC(C)(C)CC[C@]5(C(=O)NCCCCN)CC[C@]43C)[C@@]2(C)CC[C@@H]1OC(C)=O | > 30 µM | > 30 µM | > 30 µM | > 30 µM | > 30 µM | > 30 µM | – | – | – | – | – | – | – | – |
| COC(=O)CNC(=O)[C@]12CCC(C)(C)C[C@H]1C1=CC[C@@H]3[C@@]4(C)CC[C@H](OC(C)=O)[C@@](C)(COC(C)=O)[C@@H]4CC[C@@]3(C)[C@]1(C)CC2 | 3.1 µM | 1.7 µM | 3.7 µM | 4.5 µM | 4.8 µM | 8.4 µM | – | – | – | – | – | – | – | – |
| COC(=O)CNC(=O)[C@]12CCC(C)(C)C[C@H]1C1=CC[C@@H]3[C@@]4(C)CC[C@H](O)[C@@](C)(CO)[C@@H]4CC[C@@]3(C)[C@]1(C)CC2 | > 30 µM | > 30 µM | > 30 µM | – | > 30 µM | > 30 µM | – | – | – | – | – | – | – | – |
| COC(=O)C(NC(=O)[C@]12CCC(C)(C)C[C@H]1C1=CC[C@@H]3[C@@]4(C)CC[C@H](OC(C)=O)[C@@](C)(COC(C)=O)[C@@H]4CC[C@@]3(C)[C@]1(C)CC2)c1ccccc1 (stereo partly drawn) | 4.6 µM | 3.3 µM | 5.1 µM | 5.7 µM | 6.3 µM | 12.9 µM | – | – | – | – | – | – | – | – |
| CC(=O)OC[C@@]1(C)[C@@H]2CC[C@]3(C)[C@H](CC=C4[C@@H]5CC(C)(C)CC[C@]5(C(=O)NCCN5CCOCC5)CC[C@]43C)[C@@]2(C)CC[C@@H]1OC(C)=O | 3.3 µM | 1.2 µM | 2.8 µM | 3.8 µM | 3.9 µM | 7.6 µM | – | – | – | – | – | – | – | – |
| CC(=O)OC[C@@]1(C)[C@@H]2CC[C@]3(C)[C@H](CC=C4[C@@H]5CC(C)(C)CC[C@]5(C(=O)NCc5cn(Cc6ccccc6[N+](=O)[O-])nn5)CC[C@]43C)[C@@]2(C)CC[C@@H]1OC(C)=O | 2.8 µM | 1.6 µM | 1.9 µM | 2.7 µM | 3.8 µM | 2.1 µM | – | – | – | – | – | – | – | – |
| CC(=O)OC[C@@]1(C)[C@@H]2CC[C@]3(C)[C@H](CC=C4[C@@H]5CC(C)(C)CC[C@]5(C(=O)N5CCCC5)CC[C@]43C)[C@@]2(C)CC[C@@H]1OC(C)=O | 1.6 µM | 0.4 µM | 1.8 µM | 2.5 µM | 1.7 µM | 9.6 µM | 70 | 29 | 32 | – | – | – | – | – |
| CC(=O)OC[C@@]1(C)[C@@H]2CC[C@]3(C)[C@H](CC=C4[C@@H]5CC(C)(C)CC[C@]5(C(=O)NCc5cn(Cc6ccccc6Br)nn5)CC[C@]43C)[C@@]2(C)CC[C@@H]1OC(C)=O | 2.5 µM | 1.7 µM | 1.9 µM | 3 µM | 2.3 µM | 3.4 µM | – | – | – | – | – | – | – | – |
| CC1(C)CC[C@]2(C(=O)N3CCCC3)CC[C@]3(C)C(=CC[C@@H]4[C@@]5(C)CC[C@H](O)[C@@](C)(CO)[C@@H]5CC[C@]43C)[C@@H]2C1 | 2.8 µM | 3 µM | 1.2 µM | – | 3.6 µM | 2.2 µM | – | – | – | 30 | 15 | Active | Active | Active |
| CC1(C)CC[C@]2(C(=O)O)CC[C@]3(C)C(=CC[C@@H]4[C@@]5(C)CC[C@H](O)[C@@](C)(CO)[C@@H]5CC[C@]43C)[C@@H]2C1 [HEDERAGENIN] | > 30 µM | > 30 µM | > 30 µM | > 30 µM | > 30 µM | > 30 µM | – | – | – | – | – | – | – | – |
| CC(=O)OC[C@@]1(C)[C@@H]2CC[C@]3(C)[C@H](CC=C4[C@@H]5CC(C)(C)CC[C@]5(C(=O)NCCN5CCCCC5)CC[C@]43C)[C@@]2(C)CC[C@@H]1OC(C)=O | 4.3 µM | 2.1 µM | 2.1 µM | 3.2 µM | 4.7 µM | 3.2 µM | – | – | – | – | – | – | – | – |
| CC(=O)OC[C@@]1(C)[C@@H]2CC[C@]3(C)[C@H](CC=C4[C@@H]5CC(C)(C)CC[C@]5(C(=O)NCCN5CCCC5)CC[C@]43C)[C@@]2(C)CC[C@@H]1OC(C)=O | 4 µM | 1.9 µM | 1.5 µM | 2.6 µM | 3.6 µM | 2.2 µM | – | – | – | – | – | – | – | – |
